Laboratory results: the supplement of paper PMC10307832

What was measured:
Assay in all cases: relative viability (nuclei count vs DMSO), 5 days (fraction); higher = more cells survive
[1] = compound: CC1=CN=C(N=C1C2=CNC(=C2)C(=O)N[C@H](CO)C3=CC(=CC=C3)Cl)NC4=C(C=C(C=C4)F)Cl [VX-11e] + CC(=O)Nc1cccc(-n2c(=O)n(C3CC3)c(=O)c3c(Nc4ccc(I)cc4F)n(C)c(=O)c(C)c32)c1 [Trametinib] (partner 0.02 µM)
Outline: (§1)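 Values are medians from duplicate plates. Each reflects relative viability, defined as the nuclei count of treated wells over that of vehicle wells. Lung cancer cell lines in 1536-well plates were pin-tool dosed one day after seeding with one drug alone or with a fixed anchor-drug dose plus five library-drug doses (not always all listed) in √10 steps, then fixed, stained and imaged at 4× after 5 days.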

[2] = compound: CC1=CN=C(N=C1C2=CNC(=C2)C(=O)N[C@H](CO)C3=CC(=CC=C3)Cl)NC4=C(C=C(C=C4)F)Cl [VX-11e] + COc1cccc2cc(-c3nc([C@H]4CC[C@H](C(=O)O)CC4)n4ncnc(N)c34)[nH]c12 [OSI-027] (partner 0.5 µM)
Outline: as §1

[3] = compound: CC1=CN=C(N=C1C2=CNC(=C2)C(=O)N[C@H](CO)C3=CC(=CC=C3)Cl)NC4=C(C=C(C=C4)F)Cl [VX-11e] + C[C@@H](Oc1cc(-c2cnn(C3CCNCC3)c2)cnc1N)c1c(Cl)ccc(F)c1Cl [Crizotinib] (partner 1 µM)
Outline: as §1

[4] = compound: CC1=CN=C(N=C1C2=CNC(=C2)C(=O)N[C@H](CO)C3=CC(=CC=C3)Cl)NC4=C(C=C(C=C4)F)Cl [VX-11e] + N=C(N)NC(=N)NCCc1ccccc1 [Phenformin] (partner 250 µM)
Outline: as §1

Row | Cell Line | relative viability ([1]; first compound 0.04 µM) | relative viability ([1]; first compound 0.1265 µM) | relative viability ([1]; first compound 0.4 µM) | relative viability ([1]; first compound 1.265 µM) | relative viability ([1]; first compound 4 µM) | relative viability ([2]; first compound 0.04 µM) | relative viability ([2]; first compound 0.1265 µM) | relative viability ([2]; first compound 0.4 µM) | relative viability ([2]; first compound 1.265 µM) | relative viability ([2]; first compound 4 µM) | relative viability ([3]; first compound 0.04 µM) | relative viability ([3]; first compound 0.1265 µM) | relative viability ([3]; first compound 0.4 µM) | relative viability ([3]; first compound 1.265 µM) | relative viability ([3]; first compound 4 µM) | relative viability ([4]; first compound 0.04 µM) | relative viability ([4]; first compound 0.1265 µM) | relative viability ([4]; first compound 0.4 µM) | relative viability ([4]; first compound 1.265 µM) | relative viability ([4]; first compound 4 µM)
1 | PC-3 [JPC-3] | 0.671 | 0.653 | 0.59 | 0.572 | 0.527 | 0.705 | 0.714 | 0.685 | 0.866 | 0.544 | 0.993 | 0.963 | 0.93 | 1.07 | 0.845 | 0.436 | 0.476 | 0.486 | 0.489 | 0.414
2 | PC-14 | 0.734 | 0.697 | 0.624 | 0.413 | 0.216 | 0.739 | 0.723 | 0.4 | 0.635 | 0.166 | 0.993 | 0.916 | 0.861 | 0.878 | 0.506 | 0.539 | 0.552 | 0.196 | 0.472 | 0.239
3 | RERF-LC-KJ | 0.888 | 0.766 | 0.897 | 0.921 | 0.667 | 0.442 | 0.474 | 0.528 | 0.504 | 0.327 | 0.899 | 0.834 | 0.881 | 0.863 | 0.753 | 0.403 | 0.427 | 0.408 | 0.372 | 0.315
4 | SK-LU-1 | 0.427 | 0.332 | 0.179 | 0.25 | 0.274 | 0.285 | 0.352 |  | 0.233 | 0.132 | 0.987 | 0.761 | 0.789 | 0.735 | 0.407 | 0.474 | 0.492 |  | 0.356 | 0.156
5 | SK-MES-1 | 0.566 | 0.486 | 0.399 | 0.338 | 0.27 | 0.585 | 0.436 | 0.632 | 0.552 | 0.185 | 1.09 | 0.966 | 1.05 | 0.964 | 0.643 | 0.693 | 0.64 | 0.694 | 0.618 | 0.368
6 | SW 1573 |  | 0.567 | 0.498 | 0.401 | 0.328 | 0.52 | 0.561 | 0.708 | 0.402 | 0.194 | 0.871 | 0.789 | 0.743 | 0.793 | 0.451 | 0.39 | 0.346 | 0.289 | 0.287 | 0.154
7 | UMC-11 | 0.563 | 0.626 | 0.563 | 0.357 | 0.551 | 0.36 | 0.435 | 0.41 | 0.379 | 0.428 | 0.699 | 0.785 | 0.574 | 0.511 | 0.662 | 0.291 | 0.309 | 0.28 | 0.301 | 0.283
